“And” between values parts separate entries of the source, which are not always exact repeats. Equal values may be shown once. Read-outs that look alike come from different tables or passages of the source. No end group written: not given here.
Tests used:
[1] = tested on: FQSE (SEQ ID NO:10)-specific binding sites in the rat cortex; assay: Radioligand analysis with [3H] FQSE on rat cortex membranes
Protocol: After decapitation, the tissues were immediately frozen in liquid nitrogen and stored in a low-temperature refrigerator at −80° C. On the day of the experiment, brain tissue (cortex, about 300 mg) was homogenized in a Teflon-glass Potter homogenizer 1:25 W:V in the buffer (50 mM Tris-HCl, pH 7.4). The homogenate was centrifuged at 40,000 g for 20 min. The obtained precipitate was homogenized in a buffer (50 mM Tris-HCl; pH=7.4) and centrifuged again at 40,000 g for 20 min. A similar procedure was performed again. The precipitate was resuspended in 15 ml of the same buffer and used for the radioligand analysis.
The incubation mixture (final volume 0.5 ml) contained 50 μl […]
At the end of the incubation, the samples were filtered through Ge/C glass fiber filters (Whatman) previously moistened with 0.3% polyethyleneimine for 2 hours at room temperature. Each tube was washed twice with cold buffer, then the filters were washed twice with the same volume of buffer.
The filters were air-dried and transferred to scintillation vials. Filters were poured with 5 ml of toluene-based scintillation liquid (4 g PPO, 0.2 g POPOP per liter of toluene).
To construct the curves of the radioactive ligand's displacement each concentration of the test substance was taken in 3 replications. […]

zebrafish (Danio rerio) [2] = assay: Open Field test in zebrafish; assay type: in vivo; settings: ip; for average distance covered / track length (locomotor activity): diazepam 1.25, 5, 10, fluvoxamine 5, 10, ACZ-10 0.6, BCM-7 5, FQSE 1 and 10, DKTE 1, WDQV 10 mg/kg; for time spent at the surface of the aquarium: fluvoxamine 5 and 10 mg/kg, FQSE 1 mg/kg
Protocol: (§1) The tested substances were injected into the zebrafish intraperitoneally (ip) using an insulin syringe (0.5 ml, 30 g) 10 minutes before the test. The saline solution (0.9% NaCl) was used as a solvent. Anesthesia and immobilization of the animals were achieved by placing them in water at a temperature of 10° C. Control group fish received intraperitoneal injections of an equivalent volume of solvent, also after going through a pre-cooling procedure.
(§2) A base, back, and side walls of the aquarium were made of matte black plastic; the front panel (shorter wall) was made of transparent Plexiglas. The setup for the Light/Dark preference test consisted of three main parts: a launch compartment, a light compartment made of white plastic, and a dark compartment made of black plastic. The bright lighting in these tests was provided by a lamp on a stand (LED lamp PL, 11 W, light flux≈600 Lm, about 500 Lx directly above the water surface), which was attached to the upper part of the aquarium.
(§3) The open field test was performed as described in Maximino et al., 2013. A video recording (background shooting) was started 20-30 seconds before the zebrafish were placed in the test aquarium. The experimental zebrafish was placed in an open field (“OF”) aquarium using a net. The recording was being conducted for five minutes. The test was carried out using EthoVision XT software package (Noldus). The software registered the distance covered by the animal, its speed, the number of visits to the three conventional zones of the aquarium: “bottom,” “center,” and […] (lower, middle, and upper thirds of the aquarium, respectively), the time spent in these zones, and the latency of a visit to the middle and to the surface of the aquarium.

Sprague Dawley rats = assay: Forced swim test in rats, intranasal FQSE; assay type: in vivo; settings: FQSE 0.5 mg/kg i.n.; ketamine 10 mg/kg IP
Protocol: The five doses of FQSE (SEQ ID NO:10) (0.01, 0.1, 0.5, 1 and 3 mg/kg, CS, Menlo Park, CA) were prepared fresh for each test day in sterile saline and administered intranasally (i.n.) 30 minutes prior to testing. Fifteen rats per group per peptide dose were tested with the exception that there were twenty rats in the vehicle (0) group. Each dose was administered in a randomized order across rats. Prior to dosing, the rats were lightly anesthetized (till loss of righting reflex) with isoflurane (2.5%, 0.5 L/min oxygen), placed in the recumbent position, then a thin plastic pipette (Fischer Scientific) inserted into the nares and peptide administered at a volume of 15-20 uL per nares. Individuals performing the behavioral tests were blind to drug treatment.
Rats were first allowed to acclimate to the testing room for 30 minutes while in their home cage. The forced swim tests were conducted using Plexiglas cylinders (10 in width, 18 in height) filled with water maintained at approximately 25° C. On day 1, rats were first habituated (15 minutes) to the forced swim apparatus by being placed into the water facing the cylinder wall. Forced swim tests (5 minutes) occurred the following day. Activity was recorded by digital cameras and analyzed with specialized software (Ethovision XT12).
Statistical significance was set at P<0.05.

zebrafish (Danio rerio) [3] = assay: Shoaling behavior test in zebrafish; assay type: in vivo; settings: ip; for time spent in the compartment near the shoal: ACZ-10 0.6 mg/kg
Protocol: as §1
A Plexiglas container with a removable partition (shown in FIG. 4) was used as a setup for investigating the shoaling behavior of zebrafish. A shoal of 5 adult Danio rerio specimens was placed into in the small compartment; and the test fish was placed in a large compartment. Diffused lighting in this installation was provided by the usual lighting of the room (about 200 Lx).
(§4) The shoaling behavior test was performed as described in Parker et al., 2014. (Parker et al. (2014) The utility of zebrafish to study the mechanisms by which ethanol affects social behavior and anxiety during early brain development. Prog. Neuro-Psychopharmacology Biol. Psychiatry. 94-100). The video recording began simultaneously with placing the zebrafish in the set-up and recorded for 5 minutes. The videos were processed using RealTimer (OpenScience Ltd., Moskow, Russia). During the processing of the records, the residence time and the number of visits to the three conventional zones of the aquarium wall (near the “shoal” in the middle of the aquarium, and near the opposite side; all three were equal in size) were recorded.

zebrafish (Danio rerio) [4] = assay: Light/dark box test in zebrafish; assay type: in vivo; settings: ip
Protocol: as §1, §2
(§5) The light/dark box (LDB) test was performed as described in Maximino et al., 2011. The zebrafish was placed in a light compartment of an LDB using a net, the camera was switched on simultaneously, and the behavior of the zebrafish was recorded for 5 minutes. The video was processed using RealTimer (OpenScience). During the processing of records, the residence time and the number of visits to the light and dark compartments of the test setup were recorded, as well as the latent period of visiting both compartments.

zebrafish (Danio rerio) [5] = assay: Zebrafish behavioral tests taken together (open field, light/dark box, shoaling); assay type: in vivo; settings: ip; for basic behavioral parameters in open field, light/dark box and shoaling tests: FLPY 1 and 10 mg/kg, DKTE 10 mg/kg, WDQV 1 mg/kg
Protocol: as §1, §3, §4, §5

[6] = diazepam 1.25 mg/kg, BCM-7 5 mg/kg, DKTE 1 mg/kg, vs control
[7] = FQSE 10 mg/kg, ACZ-10 0.6 mg/kg

CC(=O)[C@H]1CC[C@H]2[C@@H]3CC[C@H]4C[C@H](O)CC[C@]4(C)[C@H]3CC[C@]12C [Allopregnanolone]
Amount of bound [3H] FQSE after pre-incubation compared to control level [1]: 100.90% and 103.18%

CC(C)(C)OC(=O)c1ncn2c1[C@@H]1CCCN1C(=O)c1c(Br)cccc1-2 [Bretanezil]
Amount of bound [3H] FQSE after pre-incubation compared to control level [1]: 94.79% and 104.51%

CCCCCCN(CCCCCC)C(=O)Cc1c(-c2ccc(F)cc2)[nH]c2ccccc12 [FGIN-1-27]
Amount of bound [3H] FQSE after pre-incubation compared to control level [1]: 102.65% and 102.33%

COCCCC/C(=N\OCCN)c1ccc(C(F)(F)F)cc1 [Fluvoxamine]
increase of the time spent in the upper part (zebrafish (Danio rerio) [2]; FQSE 10 mg/kg, fluvoxamine 5 mg/kg): more than 80% | average distance covered / track length (locomotor activity) (zebrafish (Danio rerio) [2]): did not demonstrate any significant effects | increase of the time spent under light (zebrafish (Danio rerio) [2]; fluvoxamine 5 mg/kg): about 6.8 times | increase of the time spent under light (zebrafish (Danio rerio) [2]; fluvoxamine 10 mg/kg): about 7.2 times | time spent at the surface of the aquarium (zebrafish (Danio rerio) [2]; ACZ-10 0.6 mg/kg): statistically significant increase

Oc1noc2c1CCNC2 [Gaboxadol]
Amount of bound [3H] FQSE after pre-incubation compared to control level [1]: 99.31% and 100.25%

O=C(O)C1=CCNCC1 [Isoguvacine]
Amount of bound [3H] FQSE after pre-incubation compared to control level ([1]; 10^−4M, 1 hour preincubation, 25 minutes incubation): 102.56% | Amount of bound [3H] FQSE after pre-incubation compared to control level ([1]; 10^−5M, 1 hour preincubation, 25 minutes incubation): 104.33% | IC50 ([1]; Series 5, 25 and 50 minutes at room temperature, read-out: IC50 with respect to [3H]-FQSE binding): > 100 µM

CNC1(c2ccccc2Cl)CCCCC1=O (stereo not shown) [Ketamine]
immobility (Sprague Dawley rats): 196.4 ± 8.9 s | mobility (Sprague Dawley rats): 103.6 ± 8.9 s

O=C(c1ccc(F)cc1)C1CCN(CCn2c(=O)[nH]c3ccccc3c2=O)CC1 [Ketanserin]
IC50 ([1]; 25 min incubation at RT, read-out: IC50 with respect to [3H]-FQSE binding): > 100 µM

Cn1ncnc1COc1nn2c(-c3c(F)cccc3F)nnc2cc1C1CCC1 [MK0343]
Amount of bound [3H] FQSE after pre-incubation compared to control level [1]: 98.58% and 104.65%

CC(=O)[C@H]1CC[C@H]2[C@@H]3CC=C4C[C@@H](O)CC[C@]4(C)[C@H]3CC[C@]12C [Pregnenolone]
Amount of bound [3H] FQSE after pre-incubation compared to control level [1]: 87% and 81% | IC50 ([1]; RT, 50 min, read-out: IC50 after different incubation times: 50 min): 36 ± 0.2 µM | IC50 ([1]; RT, 1 h 30 min, read-out: IC50 after different incubation times: 1 h 30 min): 75 ± 0.3 µM | IC50 ([1]; RT, 1 h, read-out: IC50 after different incubation times: 1 h): 77 ± 0.2 µM | IC50 ([1]; read-out: IC50 for the [3H]-FQSE binding sites in rat cortex membranes): ~100 µM

O=C(N/N=C/c1ccccc1O)c1ccccc1O [SCS]
Amount of bound [3H] FQSE after pre-incubation compared to control level [1]: 93.93% and 104.58%

Cn1c2ccc(F)cc2c2c(C(=O)N3CCCC3)cn(-c3ccccc3)c(=O)c21 [SL 651498]
Amount of bound [3H] FQSE after pre-incubation compared to control level [1]: 101.36% and 106.98%

CC1(C)CC(=O)c2c(SCCO)sc(-c3nccs3)c2C1 [TB21007]
Amount of bound [3H] FQSE after pre-incubation compared to control level [1]: 103.14% and 105.28%

C[C@]12CC[C@@H](O)C[C@@H]1CC[C@@H]1[C@@H]2CC[C@]2(C)[C@@H](C(=O)CO)CC[C@@H]12 [THDOC, tetrahydrodeoxycorticosterone; 3α,21-dihydroxy-5α-pregnan-20-one]
Amount of bound [3H] FQSE after pre-incubation compared to control level [1]: 100.59% and 103.38%

DKTE: tetrapeptide D, K, T, E
latent period of visiting the bottom of the aquarium (zebrafish (Danio rerio) [2]; DKTE 1 mg/kg): increase | average distance covered / track length (locomotor activity) (zebrafish (Danio rerio) [2]): did not affect | latent period of visiting the shoal (zebrafish (Danio rerio) [3]; DKTE 1 mg/kg): statistically significant increase | time spent in the compartment near the shoal (zebrafish (Danio rerio) [3]; [6]): at the level of tendency | time spent outside the shoaling compartment (near the wall opposite to the shoal) (zebrafish (Danio rerio) [3]; diazepam 5 mg/kg, FQSE 10 mg/kg, DKTE 1 mg/kg, vs control): statistically significant increase | change in behavior / efficacy in the light/dark box test (zebrafish (Danio rerio) [4]; fluvoxamine 5 and 10 mg/kg, DKTE 1 mg/kg): no observed efficacy | basic behavioral parameters in open field, light/dark box and shoaling tests (zebrafish (Danio rerio) [5]): did not cause any statistically significant changes

FLPY: tetrapeptide used as a negative control
basic behavioral parameters in open field, light/dark box and shoaling tests (zebrafish (Danio rerio) [5]): neither of the doses of FLPY (SEQ ID NO:36), induced statistically significant changes

WDQV: tetrapeptide W, D, Q, V
average distance covered / track length (locomotor activity) (zebrafish (Danio rerio) [2]): no influence | time spent in the dark compartment (zebrafish (Danio rerio) [4]; FQSE 10 mg/kg, WDQV 10 mg/kg): reduction | time spent in the light compartment (zebrafish (Danio rerio) [4]; diazepam 5 mg/kg, FQSE 10 mg/kg, WDQV 10 mg/kg): increase | basic behavioral parameters in open field, light/dark box and shoaling tests (zebrafish (Danio rerio) [5]): no significant effects | behavior in tests other than the light/dark box (zebrafish (Danio rerio) [5]; WDQV 10 mg/kg): did not reveal any effect

YLGYLEQLLR [ACZ-10, L-tyrosyl-L-leucyl-glycyl-L-tyrosyl-L-leucyl-L-alpha-glutamyl-L-glutaminyl-L-leucyl-L-leucyl-L-arginine]
latent period of leaving the bottom (zebrafish (Danio rerio) [2]; [7]): decreased significantly | time spent in the upper part of the aquarium (zebrafish (Danio rerio) [2]; [7]): did not affect | average distance covered / track length (locomotor activity) (zebrafish (Danio rerio) [2]): did not demonstrate any significant effects | time spent at the surface of the aquarium (zebrafish (Danio rerio) [2]; ACZ-10 0.6 mg/kg): approximately twofold increase | time spent in the compartment near the shoal (zebrafish (Danio rerio) [3]; [6]): statistically significant decrease

YPFPGPI [BCM-7, L-tyrosyl-L-prolyl-L-phenylalanyl-L-prolyl-glycyl-L-prolyl-L-isoleucine]
average distance covered / track length (locomotor activity) (zebrafish (Danio rerio) [2]): slight increase | time spent in the compartment near the shoal (zebrafish (Danio rerio) [3]; [6]): decrease | time spent outside the shoaling compartment (zebrafish (Danio rerio) [3]; diazepam 1.25 mg/kg, BCM-7 5 mg/kg): did not demonstrate a statistically significant effect
